Oligonucleotides are written 5' to 3', each unit as a sugar letter and its base; * is a phosphorothioate linkage, no mark a phosphodiester; rarer units and linkages stand in square brackets, end groups in braces. Plain capitals give the bases only. e = 2'-O-(2-methoxyethyl) (MOE); [5mC] = 5-methylcytosine; d = 2'-deoxy (DNA)
Columns and labels:
[1] = system: Mouse STAT3 mRNA; assay: Inhibition of mouse STAT3 mRNA expression in BCL1 cells (electroporation; RNase protection/Northern blot); format: cell-based; parameters: % mRNA INHIBITION: dose or concentration left out as unconfirmed; conditions: BCL1 cells electroporated with oligonucleotide, RNA collected 24 hours later
Description: The B lymphoma cell line, BCL1 was obtained from ATCC (Rockville, Md.). BCL1 cells were cultured in RPMI 1640 medium.
BCL1 cells (5×10^6 cells in PBS) were transfected with oligonucleotides by electroporation, at 200V, […]. using a BTX Electro Cell Manipulator 600 (Genetronics, San Diego, Calif.). For an initial screen, BCL1 were electroporated with […] oligonucleotide and RNA collected 24 hours later. Controls without oligonucleotide were subjected to the same electroporation conditions.
Total cellular RNA was isolated using the RNEASY7 kit (Qiagen, Santa Clarita, Calif.). RNAse protection experiments were conducted using RIBOQUANT™ kits and template sets according to the manufacturer's instructions (Pharmingen, San Diego, Calif.). Northern blotting was performed as described in Chiang, M-Y. et al. (J. Biol. Chem., 1991, 266, 18162-18171), using a rat cDNA probe prepared by Xho I/Sal I restriction digest of psvsport-1 plasmid (ATCC, Rockville, Md.). mRNA levels were quantitated using a PhosphorImager (Molecular Dynamics, Sunnyvale, Calif.).

[2] = system: Mouse STAT3 protein; assay: STAT3 protein levels in BCL1 cells by Western blot, dose response; format: cell-based
Description: ISIS 17152 (SEQ ID. NO. 99) was chosen for further study. The effect of this oligonucleotide on protein levels was determined by Western blot. ISIS 23177 (SEQ ID NO. 106), a 3 base mismatch, was used as a control. BCL1 cells were grown, treated and processed as described in Example 2.
Nuclear extracts from primary B cells and B lymphoma cell lines were prepared as described in Karras, J. G., et al. (J. Exp. Med., 1997, 185, 1035-1042).
Western blotting was performed as described in Karras, J. G. et al. (J. Immunol., 1996, 157, 2299). STAT1 and STAT3 antibodies were obtained from UBI (Lake Placid, N.Y.).

[3] = system: BCL1 cells; assay: BCL1 cell proliferation, [3H]-thymidine incorporation; format: cell-based, mouse; conditions: BCL1 cells; for % Cell Proliferation: 48 hours after electroporation
Description: The effect of ISIS 17152 (SEQ ID NO. 99) on BCL1 proliferation was determined. BCL1 cells contain constitutively active STAT3 which is thought to be responsible for their proliferation. BCL1 cells were grown, treated and processed as described in Example 2.
1×10^5 BCL1 cells were incubated in 96-well plates in […] complete RPMI following electroporation. Cultures were pulsed with […] of [^3H]-thymidine for the last 8 hours of culture and cells were harvested and analyzed for thymidine incorporation as described in Francis, D. A. et al. (Int. Immunol., 1995, 7, 151-161) 48 hours after electroporation.

[4] = system: IgM secretion by BCL1 cells; assay: BCL1 IgM secretion, ELISA; format: cell-based, mouse
Description: The effect of ISIS 17152 (SEQ ID. NO. 99) on IgM secretion levels was determined. STAT3 has been implicated in regulation of IgM expression (Faris, M., et al., Immunology, 1997, 90, 350-357). BCL1 cells were grown, treated and processed as described in Example 2.
1×10^6 BCL1 cells were incubated in 12-well plates in 2 mL complete RPMI following electroporation. Supernatant was replaced at 24 hour post electroporation with fresh medium. 48 hours later, supernatants were harvested, centrifuged to remove cells, and assayed for IgM content using the OPT-EIA™ ELISA kit (Pharmingen, San Diego, Calif.) and capture and detecting antibodies for mouse IgM (Southern Biotechnology, Birmingham, Ala.).

[5] = system: RANTES mRNA; assay: Induction of chemokines in BCL1 cells, RNase protection assay: RANTES; format: cell-based, mouse; conditions: CpG oligonucleotide induced
Description: (§1) The effect of ISIS 17152 (SEQ ID. NO. 99) on chemokine levels was determined. BCL1 cells were grown, treated and processed as described in Example 2. Chemokine gene expression was induced in BCL1 cells by addition of […] of a CpG-containing oligonucleotide to the media 16 hours following antisense oligonucleotide electroporation. CpG-containing oligonucleotides are immune-stimulatory (Krieg, A. M., et al., Nature, 1995, 374, 546-549). The levels of chemokines were measured eight hours later using RNase protection assay as described in Example 2 with a mouse chemokine template set, Mck-5 (Pharmingen, San Diego, Calif.).

[6] = system: MIP1a mRNA; assay: Induction of chemokines in BCL1 cells, RNase protection assay: MIP1a; format: cell-based, mouse; conditions: CpG oligonucleotide induced
Description: as §1

[7] = system: MIP1b mRNA; assay: Induction of chemokines in BCL1 cells, RNase protection assay: MIP1b; format: cell-based, mouse; conditions: CpG oligonucleotide induced
Description: as §1

[8] = system: Human STAT3 mRNA; assay: Inhibition of human STAT3 mRNA expression in U266 cells, Northern blot; format: cell-based; conditions: U266 cells, 2.5 μM oligonucleotide, electroporation, 24 hours
Description: U266 human myeloma cell lines (originally obtained from American Type Culture Collection) were maintained in RPMI 1640 medium supplemented with 10% fetal calf serum. Cells (15×10^6 cells in PBS) were transfected with oligonucleotides at 200V with a single 6-millisecond pulse using a BTX Electro Square Porator T820 (Genetronics, San Diego Calif.). The cells were incubated for 24 hours before RNA extraction.
Total cellular RNA was isolated using the Rneasy kit (Qiagen, Santa Clarita, Calif.). Northern blotting was perfomed on 15 μg of RNA using a cDNA probe prepared from MB-MDA 468 RNA by standard RT-PCR followed by a nested primer reaction. Signals were quantitated using a Molecular Dynamics Phosphorimager.
In order to examine the importance of STAT3 expression in multiple myeloma cells, a series of 20mer STAT3 antisense oligonucleotides were designed and synthesized, using phosphorothioate chemistry and incorporating 2′-O-methoxyethyl modifications to improve hybridization affinity and nuclease resistance.

Substance | % protein Expression ([2]; dose 10 nM) | % protein Inhibition ([2]; dose 10 nM) | % protein Expression ([2]; dose 15 nM) | % protein Inhibition ([2]; dose 15 nM) | % protein Expression ([2]; dose 20 nM) | % protein Inhibition ([2]; dose 20 nM) | % Cell Proliferation ([3]; dose 10 nM) | % Cell Inhibition ([3]; dose 15 nM) | % Cell Proliferation ([3]; dose 15 nM) | % Cell Proliferation ([3]; dose 20 nM) | % IgM Expression ([4]; dose 5 nM) | % IgM Expression ([4]; dose 15 nM) | % IgM Inhibition ([4]; dose 15 nM) | further results
17152 (antisense eA*eA*eA*eA*eA*dG*dT*dG*dC*dC*dC*dA*dG*dA*dT*eT*eG*e[5mC]*e[5mC]*e[5mC]) [compound 17152] | 41.7% | 58.3% | 42.5% | 57.5% | 26.5% | 73.5% | 78.5% | 45.6% | 54.4% | 50.2% | 34.2% | 23.1% | 76.9% | % mRNA INHIBITION [1]: 75%; % mRNA EXPRESSION ([1]; control 100%): 25%; % Cell Inhibition ([3]; dose 10 nM): 21.5%; % Cell Inhibition ([3]; dose 20 nM): 49.8%; % IgM Inhibition ([4]; dose 5 nM): 65.8%; % RANTES mRNA ([5]; dose 5 nM, control 100%): 236%; % RANTES mRNA ([5]; dose 10 nM): 266%; % RANTES mRNA ([5]; dose 20 nM): 257%; % MIP1a mRNA ([6]; dose 5 nM): 201%; % MIP1a mRNA ([6]; dose 10 nM): 258%; % MIP1a mRNA ([6]; dose 20 nM): 254%; % MIP1b mRNA ([7]; dose 5 nM): 133%; % MIP1b mRNA ([7]; dose 10 nM): 150%; % MIP1b mRNA ([7]; dose 20 nM): 159%; % mRNA INHIBITION [8]: 17.5%; % mRNA EXPRESSION ([8]; percent of control): 82.5%
23177 (antisense eA*eA*eA*eA*eA*dG*dT*dC*dC*dG*dC*dT*dG*dA*dT*eT*eG*e[5mC]*e[5mC]*e[5mC]) [compound 23177] | 75.1% | 24.9% | 67.6% | 32.4% | 62.6% | 37.4% | 117.0% | 0.3% | 99.7% | 107.0% | 110.0% | 80.8% | 19.2% | –
